According to patent publication EP1844786A1, “Extracts of Curcuma longa and their cosmetic and dermatological uses” (EXSYMOL S.A.M., priority 2006, dated 2007):
Where two headings read alike, the source gives them in different places.

System: métabolisation de la testostérone dans des épidermes reconstruits d'origine humaine
Assay: Effect on testosterone metabolisation in reconstructed human epidermis (Test 1; labelled testosterone, silica-plate chromatography, radioactivity counting)
Assay type: cell-based
Details: 10^-4M; for inhibition at 100 µM: relative to untreated control, 24 h, mean of 3 epidermes
Description: Test 1 : mise en évidence de l'effet d'un extrait de Curcuma longa sur la métabolisation de la testostérone dans des épidermes reconstruits d'origine humaine (fournisseur : SkinEthic®).
Ces épidermes constituent un matériel biologique présentant une forte homologie avec l'épiderme humain, et permettant de tester de manière réaliste un produit destiné à être appliqué à la surface de la peau. Un extrait glycolique de feuilles de Curcuma longa a donc été testé, à différentes concentrations. Leur action a par ailleurs été comparée à celle d'un inhibiteur spécifique de la 5-alpha-réductase, le Finastéride® (molécule de référence dans ce type d'évaluation). Des épidermes reconstruits de 17 jours ont ainsi été pré-cultivés en plaque 24 puits, pendant 24 heures. Puis 100 µl de testostérone marquée ont été déposés sur la face cornée de chaque épiderme. Après 24 nouvelles heures, les milieux de culture ont été prélevés pour analyse. Il est alors regardé la métabolisation de la testostérone par chromatographie sur plaque de silice et par comptage direct de la radioactivité des différents spots, à l'aide du logiciel "Optiquant version 3 (packard)". Différents métabolites, et en particulier la dihydrotestostérone (DHT), sont identifiés à l'aide de standards. Chaque point est la moyenne de 3 mesures effectuées sur des épidermes différents.

SMILES: CC(C)(C)NC(=O)[C@H]1CC[C@H]2[C@@H]3CC[C@H]4NC(=O)C=C[C@]4(C)[C@H]3CC[C@]12C [Finastéride]
- inhibition at 100 µM (read-out: % inhibition métabolisation testostérone): 54%
- inhibition at 100 µM (read-out: % inhibition transformation en DHT): 92%
- Ratio DHT/testo. (untreated control 2,2): 0,1
